The values that follow come from ChEMBL document CHEMBL4007490, “New hydrazine and hydrazide quinoxaline 1,4-di-N-oxide derivatives: In silico ADMET, antiplasmodial and antileishmanial activity” (Bioorg Med Chem Lett, 2017).

A short description of data set [1]: Cytotoxicity against human HepG2A16 cells after 48 hrs by MTT assay. It counts as cell-based. (In general: Tetrazolium dyes change colour on reduction, which living cells bring about.)
A further data set concerns Leishmania infantum. Kind of data set: Antileishmanial activity against axenic amastigote form of Leishmania infantum MHOM/MA/67/ITMAP-263 assessed as parasite growth inhibition after 72 hrs by MTT assay. The class given is functional. The note with it: MHOM/MA/67/ITMAP-263, 72 h.
Data set [2] is described as follows: Selectivity index, ratio of CC50 for human HepG2A16 cells to IC50 for chloroquine/cycloguanil-resistant Plasmodium falciparum FCR3. The class given is toxicity. The settings on record: read-out: Ratio CC50/IC50.
In data set [3] the test system is Plasmodium falciparum. Kind of data set: Antiplasmodial activity against chloroquine/cycloguanil-resistant Plasmodium falciparum FCR3 by [3H]-hypoxanthine incorporation assay. It counts as functional. The settings on record: FCR-3/Gambia.
Data set [4] relates to Plasmodium falciparum. Kind of data set: Antiplasmodial activity against chloroquine-sensitive/sulfadoxine-resistant Plasmodium falciparum 3D7 by [3H]-hypoxanthine incorporation assay. It counts as functional.
Data set [5] is described as follows: Selectivity index, ratio of CC50 for human HepG2A16 cells to IC50 for axenic amastigote form of Leishmania infantum MHOM/MA/67/ITMAP-263. It counts as toxicity. The note with it: read-out: Ratio CC50/IC50.

In data set [1], `COc1ccc2c(c1)[n+]([O-])c(/C=N/Nc1ccnc3cc(Cl)ccc13)c(C)[n+]2[O-]` registered a CC50 at 48 h greater than 244 µM. Further, the IC50 is greater than 100 µM with Leishmania infantum, 2.56 µM with Plasmodium falciparum [3] and 1.4 µM with Plasmodium falciparum [4]. Further, the selectivity ratio in data set [2] is greater than 95.3.

Regarding `COc1ccc2c(c1)[n+]([O-])c(C)c(C)[n+]2[O-]`, it took 744 µM to reach half-maximal cytotoxicity in data set [1] (CC50 at 48 h). Besides, the IC50 in the data set with Leishmania infantum, in the data set with Plasmodium falciparum [3] and in the data set on Plasmodium falciparum [4] was greater than 100 µM throughout. In addition, the selectivity ratio in data set [2] and in data set [5] was less than 7.44 throughout.

Take `COc1ccc(C(=O)N/N=C/c2c(C)[n+]([O-])c3ccccc3[n+]2[O-])cc1`: the CC50 at 48 h in data set [1] was 66.6 µM. In addition, the figures for the half-maximal inhibitory concentration (IC50) in the data set with Leishmania infantum, with Plasmodium falciparum [3] and with Plasmodium falciparum [4] were greater than 100 µM, 30 µM and 27.8 µM, respectively. For the same compound, the figures for the selectivity ratio in data set [2] and in data set [5] were 2.22 and less than 0.66, respectively.

For the compound `CC(=O)N/N=C/c1c(C)[n+]([O-])c2ccccc2[n+]1[O-]`, in data set [1], the CC50 at 48 h is 87.2 µM. Also, the IC50 in the data set on Leishmania infantum, in the data set on Plasmodium falciparum [3] and with Plasmodium falciparum [4] was greater than 100 µM each time. Also, the selectivity ratio in data set [2] and in data set [5] was less than 0.87 each time.

On to `Cc1c(/C=N/Nc2ccccc2)[n+]([O-])c2ccccc2[n+]1[O-]`, for which it took 35.4 µM to reach half-maximal cytotoxicity in data set [1] (CC50 at 48 h). Moreover, the IC50 in the data set on Leishmania infantum, in the data set on Plasmodium falciparum [3] and in the data set on Plasmodium falciparum [4] was greater than 100 µM throughout. The selectivity ratio in data set [2] and in data set [5] was less than 0.35 each time.

Consider `Cc1c(/C=N/Nc2c(Cl)cc(Cl)cc2Cl)[n+]([O-])c2ccccc2[n+]1[O-]`, for which the CC50 at 48 h in data set [1] turned out to be 124 µM. Moreover, the IC50 with Leishmania infantum, with Plasmodium falciparum [3] and with Plasmodium falciparum [4] was greater than 100 µM in each case. The selectivity ratio in data set [2] and in data set [5] was less than 1.24 throughout.

For `C[C@@H]1[C@H](O)[C@@H](C)/C=C/C=C/C=C/C=C/C=C/C=C/C=C/[C@H](O[C@@H]2O[C@H](C)[C@@H](O)[C@H](N)[C@@H]2O)C[C@@H]2O[C@](O)(C[C@@H](O)C[C@@H](O)[C@H](O)CC[C@@H](O)C[C@@H](O)CC(=O)O[C@H]1C)C[C@H](O)[C@H]2C(=O)O` [AMPHOTERICIN B], in the data set on Leishmania infantum, the IC50 came out at 0.05 µM.

Take `Cc1c(C)[n+]([O-])c2cc(Cl)ccc2[n+]1[O-]`: the midpoint of cytotoxicity in data set [1], the CC50 at 48 h, lay at 228 µM. Moreover, the half-maximal inhibitory concentration (IC50) with Leishmania infantum, in the data set on Plasmodium falciparum [3] and in the data set on Plasmodium falciparum [4] was greater than 100 µM each time. Also, the selectivity ratio in data set [2] and in data set [5] was less than 2.28 each time.

Consider `Cc1c(/C=N/Nc2ccnc3cc(Cl)ccc23)[n+]([O-])c2cc(Cl)ccc2[n+]1[O-]`, for which the CC50 at 48 h in data set [1] was greater than 241 µM. Further, the IC50 in the data set on Leishmania infantum is greater than 100 µM; in the data set on Plasmodium falciparum [3] it was 2.8 µM; in the data set with Plasmodium falciparum [4] it was 0.24 µM. Moreover, the selectivity ratio in data set [2] was greater than 86.1.

With `Cc1ccc(S(=O)(=O)N/N=C/c2c(C)[n+]([O-])c3ccccc3[n+]2[O-])cc1`, the midpoint of cytotoxicity in data set [1], the CC50 at 48 h, lay at 241 µM. The values for the IC50 in the data set on Leishmania infantum, in the data set with Plasmodium falciparum [3] and in the data set with Plasmodium falciparum [4] were 53.4 µM, greater than 100 µM and 85.3 µM, respectively. The selectivity ratio in data set [2] is less than 2.41; in data set [5], 4.51.

In data set [1], `Cc1c(C(F)(F)F)[n+]([O-])c2ccccc2[n+]1[O-]` had a 50% cytotoxic concentration (CC50) at 48 h of 1.8 µM. Further, the half-maximal inhibitory concentration (IC50) is 30.5 µM in the data set with Leishmania infantum, 4.2 µM in the data set on Plasmodium falciparum [3] and 7.9 µM in the data set on Plasmodium falciparum [4]. In addition, the selectivity ratio in data set [2] was 0.42; in data set [5], 0.05.

For `Cc1c(/C=N/Nc2cccc(Cl)c2)[n+]([O-])c2ccccc2[n+]1[O-]`, in data set [1], the CC50 at 48 h is 47.3 µM. In addition, the IC50 with Leishmania infantum, in the data set on Plasmodium falciparum [3] and in the data set with Plasmodium falciparum [4] was greater than 100 µM throughout. In addition, the selectivity ratio in data set [2] and in data set [5] was less than 0.47 each time.

In data set [1], `Cc1c(/C=N/Nc2ccc(C(=O)O)cc2)[n+]([O-])c2ccccc2[n+]1[O-]` yielded a CC50 at 48 h of 373 µM. Further, the IC50 in the data set on Leishmania infantum, with Plasmodium falciparum [3] and in the data set on Plasmodium falciparum [4] was greater than 100 µM in each case. Moreover, the selectivity ratio in data set [2] and in data set [5] was less than 3.72 in each case.

As for `Cc1c(/C=N/NC(=O)c2ccc(Cl)cc2)[n+]([O-])c2ccccc2[n+]1[O-]`, in data set [1], the CC50 at 48 h came to 28.3 µM. The IC50 with Leishmania infantum worked out at 52.3 µM; in the data set on Plasmodium falciparum [3], 34.8 µM; with Plasmodium falciparum [4] it was 54.9 µM. Besides, the selectivity ratio was 0.81 in data set [2] and 0.54 in data set [5].

In the case of `Cc1c(/C=N/NC(=O)c2ccncc2)[n+]([O-])c2ccccc2[n+]1[O-]`, it took 90.9 µM to reach half-maximal cytotoxicity in data set [1] (CC50 at 48 h). Besides, the IC50 in the data set with Leishmania infantum, in the data set with Plasmodium falciparum [3] and in the data set on Plasmodium falciparum [4] was greater than 100 µM throughout. Moreover, the selectivity ratio in data set [2] and in data set [5] was less than 0.9 each time.

Take `COc1ccc2c(c1)[n+]([O-])c(/C=N/Nc1c(Cl)cc(Cl)cc1Cl)c(C)[n+]2[O-]`: the 50% cytotoxic concentration (CC50) at 48 h in data set [1] came to 209 µM. Besides, the IC50 in the data set with Leishmania infantum, in the data set with Plasmodium falciparum [3] and with Plasmodium falciparum [4] was greater than 100 µM in each case. In addition, the selectivity ratio in data set [2] was less than 2.09; in data set [5], less than 2.08.

Take `Cc1c(/C=N/Nc2c(Cl)cc(Cl)cc2Cl)[n+]([O-])c2cc(Cl)ccc2[n+]1[O-]`: in data set [1], the CC50 at 48 h turned out to be 12.2 µM. Besides, the IC50 is greater than 100 µM in the data set with Leishmania infantum, 61.1 µM in the data set on Plasmodium falciparum [3] and greater than 100 µM with Plasmodium falciparum [4]. Besides, the selectivity ratio in data set [2] was 0.2; in data set [5], less than 0.12.

Turning to `Cc1c(/C=N/NC(=O)c2ccccc2)[n+]([O-])c2ccccc2[n+]1[O-]`, half-maximal cytotoxicity in data set [1] (CC50 at 48 h) was put at 40.7 µM. The IC50 with Leishmania infantum was 59.1 µM; in the data set on Plasmodium falciparum [3] it was 36.5 µM; in the data set with Plasmodium falciparum [4], 55.7 µM. The values for the selectivity ratio in data set [2] and in data set [5] were 1.11 and 0.68, respectively.

`Cc1c(C)[n+]([O-])c2ccccc2[n+]1[O-]` displayed a CC50 at 48 h in data set [1] of 322 µM. The IC50 with Leishmania infantum, with Plasmodium falciparum [3] and with Plasmodium falciparum [4] was greater than 100 µM each time. Also, the selectivity ratio in data set [2] and in data set [5] was less than 3.21 in each case.

Regarding `Cc1c(/C=N/Nc2ccc(Cl)c(Cl)c2)[n+]([O-])c2ccccc2[n+]1[O-]`, the midpoint of cytotoxicity in data set [1], the CC50 at 48 h, lay at 551 µM. The values for the IC50 with Leishmania infantum, in the data set on Plasmodium falciparum [3] and in the data set on Plasmodium falciparum [4] were greater than 100 µM, 87.1 µM and 76.7 µM, respectively. Also, the selectivity ratio is 6.32 in data set [2] and less than 5.5 in data set [5].

Broadly, the CC50 is the concentration giving 50% cytotoxicity. The low end stands for greater toxicity to the cells, the high end for lower toxicity to the cells. In general, IC50 refers to the concentration at which inhibition is half-maximal.
